Source: ChEMBL document CHEMBL1152560, “Substituted 2-arylbenzothiazoles as kinase inhibitors: hit-to-lead optimization” (Bioorg Med Chem, 2009)

Columns and labels:
[1] = biological target: T1, Testis-specific serine/threonine-protein kinase 2 (Homo sapiens) (UniProt Q96PF2); assay: Residual activity of TSK2 at 1 uM by microplate scintillation counting
T1 sequence (whole entry): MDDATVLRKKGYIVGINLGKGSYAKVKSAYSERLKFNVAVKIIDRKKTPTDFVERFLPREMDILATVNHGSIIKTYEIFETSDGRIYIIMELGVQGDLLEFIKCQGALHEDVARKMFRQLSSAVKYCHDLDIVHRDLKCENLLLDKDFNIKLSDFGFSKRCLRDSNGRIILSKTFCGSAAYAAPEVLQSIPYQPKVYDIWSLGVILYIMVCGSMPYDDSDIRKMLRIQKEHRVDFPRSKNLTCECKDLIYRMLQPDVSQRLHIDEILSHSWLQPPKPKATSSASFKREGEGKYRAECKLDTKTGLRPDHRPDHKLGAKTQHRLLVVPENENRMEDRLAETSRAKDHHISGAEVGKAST

[2] = biological target: Calcium/calmodulin-dependent protein kinase type II subunit beta (Homo sapiens) (UniProt Q13554); assay: Residual activity of CAMK2B at 1 uM by microplate scintillation counting
Calcium/calmodulin-dependent protein kinase type II subunit beta (Homo sapiens), sequence (Q13554 whole entry): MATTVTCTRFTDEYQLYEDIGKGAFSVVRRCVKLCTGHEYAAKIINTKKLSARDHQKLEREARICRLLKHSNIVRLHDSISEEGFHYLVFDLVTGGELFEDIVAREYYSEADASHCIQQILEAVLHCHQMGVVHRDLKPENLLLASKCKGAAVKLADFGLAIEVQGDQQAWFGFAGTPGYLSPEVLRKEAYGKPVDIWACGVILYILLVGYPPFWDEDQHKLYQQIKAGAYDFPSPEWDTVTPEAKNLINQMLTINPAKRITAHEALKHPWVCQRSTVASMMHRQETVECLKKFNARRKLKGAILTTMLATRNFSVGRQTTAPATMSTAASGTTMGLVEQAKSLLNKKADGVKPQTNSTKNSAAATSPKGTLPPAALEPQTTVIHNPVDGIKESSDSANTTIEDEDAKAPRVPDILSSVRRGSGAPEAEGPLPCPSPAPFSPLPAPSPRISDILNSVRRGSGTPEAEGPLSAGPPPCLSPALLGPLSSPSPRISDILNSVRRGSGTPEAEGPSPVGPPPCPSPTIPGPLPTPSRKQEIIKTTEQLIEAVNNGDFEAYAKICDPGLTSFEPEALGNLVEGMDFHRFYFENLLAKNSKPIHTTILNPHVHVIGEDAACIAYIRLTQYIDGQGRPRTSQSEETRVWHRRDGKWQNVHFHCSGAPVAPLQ

[3] = biological target: T2, Protein kinase C zeta type (Homo sapiens) (UniProt Q05513); assay: Residual activity of PKCzeta at 10 uM by microplate scintillation counting
T2 sequence (whole entry): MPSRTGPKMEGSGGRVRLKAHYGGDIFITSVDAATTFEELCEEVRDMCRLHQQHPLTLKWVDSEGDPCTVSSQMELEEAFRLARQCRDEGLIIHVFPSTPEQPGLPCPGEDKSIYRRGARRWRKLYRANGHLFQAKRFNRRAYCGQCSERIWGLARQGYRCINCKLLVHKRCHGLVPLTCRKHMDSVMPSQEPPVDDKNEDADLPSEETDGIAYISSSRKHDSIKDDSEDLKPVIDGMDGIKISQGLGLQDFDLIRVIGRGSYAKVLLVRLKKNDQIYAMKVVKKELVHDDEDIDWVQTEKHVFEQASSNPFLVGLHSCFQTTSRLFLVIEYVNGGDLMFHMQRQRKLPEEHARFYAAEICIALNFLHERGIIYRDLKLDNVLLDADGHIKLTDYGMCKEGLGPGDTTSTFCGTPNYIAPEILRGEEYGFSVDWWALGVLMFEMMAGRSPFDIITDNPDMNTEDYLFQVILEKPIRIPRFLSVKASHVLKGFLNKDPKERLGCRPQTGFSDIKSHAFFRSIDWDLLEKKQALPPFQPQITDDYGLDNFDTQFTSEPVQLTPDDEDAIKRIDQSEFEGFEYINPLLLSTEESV

[4] = test system: Epidermal growth factor receptor (Homo sapiens), P00533 [L858R]; assay: Residual activity of EGFR L858R mutant at 0.1 uM by microplate scintillation counting
[5] = biological target: RAC-alpha serine/threonine-protein kinase (Homo sapiens) (UniProt P31749); assay: Residual activity of AKT1 at 10 uM by microplate scintillation counting
RAC-alpha serine/threonine-protein kinase (Homo sapiens), sequence (P31749 whole entry): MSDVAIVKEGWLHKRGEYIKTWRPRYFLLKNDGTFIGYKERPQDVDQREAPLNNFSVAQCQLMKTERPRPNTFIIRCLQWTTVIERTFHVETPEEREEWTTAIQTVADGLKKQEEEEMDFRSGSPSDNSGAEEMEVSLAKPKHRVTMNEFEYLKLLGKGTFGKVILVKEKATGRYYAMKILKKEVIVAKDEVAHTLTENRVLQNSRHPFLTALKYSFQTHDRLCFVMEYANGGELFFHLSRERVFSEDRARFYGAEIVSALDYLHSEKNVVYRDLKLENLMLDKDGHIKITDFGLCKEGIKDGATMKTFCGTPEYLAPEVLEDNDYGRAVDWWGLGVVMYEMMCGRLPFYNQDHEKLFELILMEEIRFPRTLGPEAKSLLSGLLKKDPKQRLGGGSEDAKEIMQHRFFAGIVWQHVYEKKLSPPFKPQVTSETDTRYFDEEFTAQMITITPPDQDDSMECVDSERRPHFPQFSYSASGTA

[6] = biological target: T3, Ephrin type-B receptor 4 (Homo sapiens) (UniProt P54760); assay: Residual activity of EPHB4 at 10 uM by microplate scintillation counting
T3 sequence (whole entry): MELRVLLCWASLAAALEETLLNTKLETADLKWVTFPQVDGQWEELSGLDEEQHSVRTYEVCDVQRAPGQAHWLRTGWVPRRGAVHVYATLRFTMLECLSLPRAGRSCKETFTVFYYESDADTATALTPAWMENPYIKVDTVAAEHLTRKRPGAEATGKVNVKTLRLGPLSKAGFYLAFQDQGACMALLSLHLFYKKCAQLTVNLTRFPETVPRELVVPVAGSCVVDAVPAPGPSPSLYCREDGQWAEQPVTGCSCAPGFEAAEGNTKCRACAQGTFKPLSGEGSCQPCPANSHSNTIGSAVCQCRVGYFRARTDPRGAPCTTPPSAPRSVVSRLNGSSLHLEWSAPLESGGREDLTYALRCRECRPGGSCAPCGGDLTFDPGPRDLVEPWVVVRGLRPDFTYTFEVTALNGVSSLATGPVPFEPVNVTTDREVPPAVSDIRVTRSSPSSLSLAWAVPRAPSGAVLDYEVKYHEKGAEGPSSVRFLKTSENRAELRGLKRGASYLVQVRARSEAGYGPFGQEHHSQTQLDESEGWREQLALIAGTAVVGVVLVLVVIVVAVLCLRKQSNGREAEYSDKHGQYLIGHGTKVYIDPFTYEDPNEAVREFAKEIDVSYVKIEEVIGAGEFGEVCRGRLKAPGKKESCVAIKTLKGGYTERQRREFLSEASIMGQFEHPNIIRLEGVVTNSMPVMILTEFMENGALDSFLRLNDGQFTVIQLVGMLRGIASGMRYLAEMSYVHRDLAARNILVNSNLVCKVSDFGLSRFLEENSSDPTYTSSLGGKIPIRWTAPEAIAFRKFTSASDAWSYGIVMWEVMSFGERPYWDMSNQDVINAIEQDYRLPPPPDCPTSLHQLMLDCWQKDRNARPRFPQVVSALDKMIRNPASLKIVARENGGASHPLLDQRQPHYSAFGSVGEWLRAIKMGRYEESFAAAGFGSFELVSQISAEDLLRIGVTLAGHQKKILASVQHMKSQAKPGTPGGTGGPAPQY

[7] = biological target: Calcium/calmodulin-dependent protein kinase kinase 2 (Homo sapiens) (UniProt Q96RR4); assay: Residual activity of CAMKK2 at 10 uM by microplate scintillation counting
Calcium/calmodulin-dependent protein kinase kinase 2 (Homo sapiens), sequence (Q96RR4 2-588 limits assumed): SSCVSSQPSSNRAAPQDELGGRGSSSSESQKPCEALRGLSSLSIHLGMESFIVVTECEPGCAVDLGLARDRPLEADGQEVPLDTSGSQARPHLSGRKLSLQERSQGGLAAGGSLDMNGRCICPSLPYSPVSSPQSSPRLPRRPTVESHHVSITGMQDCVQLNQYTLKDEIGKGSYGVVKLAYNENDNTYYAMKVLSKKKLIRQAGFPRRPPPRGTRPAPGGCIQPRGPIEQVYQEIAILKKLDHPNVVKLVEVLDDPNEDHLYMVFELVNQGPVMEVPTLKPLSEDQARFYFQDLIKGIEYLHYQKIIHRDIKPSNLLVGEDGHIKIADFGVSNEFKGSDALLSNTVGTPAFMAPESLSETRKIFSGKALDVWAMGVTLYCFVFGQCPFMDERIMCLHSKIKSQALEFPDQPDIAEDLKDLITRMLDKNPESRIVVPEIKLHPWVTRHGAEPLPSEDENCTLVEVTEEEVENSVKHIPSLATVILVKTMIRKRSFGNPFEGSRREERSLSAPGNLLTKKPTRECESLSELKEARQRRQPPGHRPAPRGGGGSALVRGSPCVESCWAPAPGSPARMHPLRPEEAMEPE

[8] = biological target: Mitogen-activated protein kinase kinase kinase 14 (Homo sapiens) (UniProt Q99558); assay: Residual activity of NIK at 10 uM by microplate scintillation counting
Mitogen-activated protein kinase kinase kinase 14 (Homo sapiens), sequence (Q99558 whole entry, looked up): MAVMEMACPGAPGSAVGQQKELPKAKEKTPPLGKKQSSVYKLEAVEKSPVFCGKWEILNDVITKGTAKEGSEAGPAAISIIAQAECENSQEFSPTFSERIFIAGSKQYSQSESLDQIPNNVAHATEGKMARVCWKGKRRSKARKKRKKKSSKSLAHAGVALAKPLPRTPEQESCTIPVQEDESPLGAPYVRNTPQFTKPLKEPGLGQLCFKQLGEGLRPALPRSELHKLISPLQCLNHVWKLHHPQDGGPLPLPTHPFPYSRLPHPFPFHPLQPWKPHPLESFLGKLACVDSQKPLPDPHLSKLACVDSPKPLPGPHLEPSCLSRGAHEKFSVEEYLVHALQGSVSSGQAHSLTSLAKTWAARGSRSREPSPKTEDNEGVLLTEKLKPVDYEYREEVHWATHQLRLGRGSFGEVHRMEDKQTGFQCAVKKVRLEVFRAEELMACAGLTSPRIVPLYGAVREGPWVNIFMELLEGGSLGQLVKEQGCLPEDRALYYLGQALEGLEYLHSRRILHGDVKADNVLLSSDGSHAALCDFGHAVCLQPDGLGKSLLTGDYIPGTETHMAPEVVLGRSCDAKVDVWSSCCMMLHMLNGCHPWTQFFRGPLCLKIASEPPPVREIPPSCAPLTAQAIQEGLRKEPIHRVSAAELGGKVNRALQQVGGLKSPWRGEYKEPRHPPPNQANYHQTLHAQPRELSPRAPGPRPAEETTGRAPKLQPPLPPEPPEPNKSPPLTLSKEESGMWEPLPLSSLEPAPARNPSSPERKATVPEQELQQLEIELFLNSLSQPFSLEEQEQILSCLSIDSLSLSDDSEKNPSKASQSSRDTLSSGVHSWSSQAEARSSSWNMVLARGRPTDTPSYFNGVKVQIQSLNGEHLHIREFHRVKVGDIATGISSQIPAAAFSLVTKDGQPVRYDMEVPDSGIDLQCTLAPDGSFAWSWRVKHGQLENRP

[9] = biological target: Interferon-induced, double-stranded RNA-activated protein kinase (Homo sapiens) (UniProt P19525); assay: Residual activity of EIF2AK2 at 0.1 uM by microplate scintillation counting
Interferon-induced, double-stranded RNA-activated protein kinase (Homo sapiens), sequence (P19525 whole entry): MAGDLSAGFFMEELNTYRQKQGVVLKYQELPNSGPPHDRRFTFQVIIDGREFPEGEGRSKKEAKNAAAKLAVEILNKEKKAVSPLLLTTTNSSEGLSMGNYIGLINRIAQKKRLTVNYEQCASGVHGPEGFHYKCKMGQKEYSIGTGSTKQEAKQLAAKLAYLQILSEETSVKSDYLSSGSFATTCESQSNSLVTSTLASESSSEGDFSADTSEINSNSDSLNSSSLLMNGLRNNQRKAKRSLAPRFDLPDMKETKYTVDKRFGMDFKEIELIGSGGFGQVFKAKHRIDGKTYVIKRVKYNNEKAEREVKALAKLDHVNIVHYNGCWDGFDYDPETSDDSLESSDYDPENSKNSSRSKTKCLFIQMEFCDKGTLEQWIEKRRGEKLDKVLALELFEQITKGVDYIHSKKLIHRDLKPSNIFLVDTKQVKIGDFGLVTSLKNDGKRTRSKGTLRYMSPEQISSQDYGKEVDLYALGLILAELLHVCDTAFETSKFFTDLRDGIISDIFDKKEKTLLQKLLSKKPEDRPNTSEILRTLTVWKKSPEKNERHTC

[10] = biological target: Protein kinase C gamma type (Homo sapiens) (UniProt P05129); assay: Residual activity of PKCgamma at 0.1 uM by microplate scintillation counting
[11] = biological target: T1, Testis-specific serine/threonine-protein kinase 2 (Homo sapiens); assay: Residual activity of TSK2 at 10 uM by microplate scintillation counting
[12] = biological target: T4, Phosphorylase b kinase gamma catalytic chain, liver/testis isoform (Homo sapiens) (UniProt P15735); assay: Residual activity of PHKG2 at 0.1 uM by microplate scintillation counting
T4 sequence (whole entry): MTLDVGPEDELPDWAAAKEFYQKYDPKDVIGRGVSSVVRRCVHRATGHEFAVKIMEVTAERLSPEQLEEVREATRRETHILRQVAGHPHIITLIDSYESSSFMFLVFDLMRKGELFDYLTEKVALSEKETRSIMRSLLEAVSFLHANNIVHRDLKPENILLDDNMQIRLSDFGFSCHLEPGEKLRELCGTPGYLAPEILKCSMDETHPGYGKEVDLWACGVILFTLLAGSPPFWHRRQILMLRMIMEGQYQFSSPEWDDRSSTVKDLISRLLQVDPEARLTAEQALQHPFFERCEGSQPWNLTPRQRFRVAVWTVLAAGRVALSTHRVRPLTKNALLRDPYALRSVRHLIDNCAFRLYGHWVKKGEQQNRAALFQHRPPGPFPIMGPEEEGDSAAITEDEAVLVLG

| Structure (SMILES) | residual activity [1] [%] | residual activity [2] [%] | residual activity [3] [%] | residual activity [4] [%] | residual activity [5] [%] | residual activity [6] [%] | residual activity [7] [%] | residual activity [8] [%] | residual activity [9] [%] | residual activity [10] [%] | residual activity [11] [%] | residual activity [12] [%] |
| --- | --- | --- | --- | --- | --- | --- | --- | --- | --- | --- | --- | --- |
| COc1cc2c(Oc3ccc(-c4nc5ccccc5s4)cc3)ncnc2cc1OCCCN1CCN(C)CC1 | 92 | 103 | 72 | 93 | 120 | 154 | 109 | 94 | 70 | 120 | 109 | 86 |
| COc1cc2c(Oc3ccc(-c4nc5ccccc5s4)cc3F)ncnc2cc1OCCCN1CCN(C)CC1 | 98 | 82 | 74 | 94 | 105 | 99 | 112 | 107 | 95 | 101 | 111 | 53 |
| COc1cc2c(Oc3ccc(-c4nc5ccccc5s4)cc3)ncnc2cc1OCCCN1CCCC1 | 108 | 70 | 64 | 92 | 87 | 122 | 97 | 125 | 82 | 99 | 110 | 83 |
